Test system: range of other cell lines (e.g., colon, melanoma)
Experiment: MTT assay, other cell lines
Format: cell-based
Details: for activity in words: other lines (e.g., colon, melanoma)
From the text: This assay was first described in Mosmann, T., 1983, “Rapid colorimetric assay for cellular growth and survival: Application to proliferation and cytotoxicity assays”, Journal of Immunological Methods, Vol. 65, Nos. 1-2, pp. 55-63.
Glioma cell lines, SNB19 and U373, both MGMT transfected (i.e., SNB19M and U373M) and vector controls (i.e., SNB19V and U373V); colorectal carcinoma cell lines, HCT116, HT29, and DLD1; melanoma cell line, SKMEL-28; breast cell line, MCF-7; and normal human fetal lung fibroblast cell line, MRC-5; were harvested at 60-80% confluence—during the logarithmic phase of growth.
Following harvesting, cells in suspension were gently syringed through a 23 gauge needle to obtain a near-single cell suspension. The desired cell seeding densities were used and added into 96-well plates in 180 μL culture medium if only one test compound was to be added, or 160 μL if two test compounds were to be added in combination, which were allowed to attach at 37° C. (5% CO2) overnight. For the 7 day assay, the cell seeding density for different cell lines was as follows: SNB19V, SNB19M: 650 cells/well; U373V, U373M: 650 cells/well; SNB19VR, U373VR: 650 cells/well; HCT116, DLD-1, SKMEL-28, MRC-5, MCF-7: 400 cells/well.
The two peripheral lanes were used as blank wells (cell free) and filled with 200 μL of medium in order to minimise medium evaporation from the plate. A separate time zero (T0) plate was set up alongside other plates. Serial dilutions in tissue culture medium of a 100 mM stock of test compound in DMSO were prepared immediately before each assay to ten times the final concentrations required, and then 20 μL was added to each well (200 μL total media per well) to achieve final concentrations of 0.5 μM, 1 μM, 5 μM, 10 μM, 50 μM, 100 μM, 500 μM, and 1000 μM. A minimum of four wells received the same test compound concentration. To control wells, including those in the T0 plate, 20 μL of medium was added. Previous assays had been carried out to verify that cell viability was not affected by the amount of DMSO added into the test compound-treated wells. A separate plate treated in the same way, but free of test compound, was used as a measure of cell viability at the time of drug addition (day 0).
After incubation at 37° C., 5% CO2 for 7 days (or immediately for the day 0 plate), cell viability was quantified using the MTT assay. 50 μL of sterile filtered MIT (3-(4,5-dimethylthiazol-2-yl)-2,5-diphenyltetrazolium bromide) (2 mg/mL in phosphate buffered saline) were added to each well (final concentration 0.4 mg/mL) and the plates were re-incubated for 4 hours to allow metabolic conversion of MTT by dehydrogenases in viable cells to insoluble formazan crystals. The medium and any unconverted MTT was aspirated, 150 μL of DMSO was added to each well, and the plates were shaken on a plate shaker (Stuart Scientific 503) to ensure complete formazan solubilisation.
The intensity of absorbance is directly proportional to cell viability. A linear relationship exists between cell number and the amount of formazan and so the mean absorbance determined for each well of the same concentration can be used as a quantitative measure of viable cells compared to the controls. A graph of absorbance against drug concentration was plotted and the test compound concentration (GI50) causing 50% inhibition of control cell growth (absorbance increase from day 0) was calculated by interpolation.

Structure (SMILES) | activity in words | GI50 (range of other cell lines (Table 1))
C#CCn1nnc2c(C(N)=O)ncn2c1=O [EE-001, 3-Propargyl-8-carbamoylimidazotetrazin-4-one] | more potent than TMZ | 
Cn1nnc2c(C(N)=O)ncn2c1=O [TMZ, 3-Methyl-4-oxo-3,4-dihydro-imidazo[5,1-d][1,2,3,5]tetrazine-8-carboxylic acid amide, reference compound] |  | 200 to 700 µM
C[S+]([O-])Cn1nnc2c(C(N)=O)ncn2c1=O (stereo not drawn) [UU-003, 3-Methanesulfinylmethyl-4-oxo-3,4-dihydro-imidazo[5,1-d][1,2,3,5]tetrazine-8-carboxylic acid amide] | surprising efficacy | 

Reference: patent publication US8450479B2, “3-substituted-4-oxo-3,4-dihydro-imidazo[5,1-d][1,2,3,5-tetrazine-8-carboxylic acid amides and their use” (Pharminox Limited, priority 2007, dated 2013)
